Data from the C3SDB collision cross section collection.

Settings: instrument: TW, calibrated with polyalanine and drug standards

Row | SMILES | collision cross section (N2) ([M+H]+) | other results
1 | CC1(C)C2CC(=O)[C@]3(C)C(CC[C@@]4(C)[C@H](c5ccoc5)OC(=O)[C@H]5O[C@]543)[C@@]2(C)C(=O)C[C@H]1O (stereo partly drawn) [1,7-DIDEACETOXY-1,7-DIOXO-3-DEACETYLKHIVORIN] | 199.7 Å² | –
2 | CC(=O)O[C@@H]1CC(=O)[C@@]2(C)C(CC(=O)[C@]3(C)C2CC[C@@]2(C)[C@H](c4ccoc4)OC(=O)C4OC423)C1(C)C (stereo partly drawn) [1,7-DIDEACETOXY-1,7-DIOXOKHIVORIN] | 210.9 Å² | –
3 | COc1ccccc1N1CCNCC1 [1-(2-METHOXYPHENYL)PIPERAZINE] | 140.5 Å² | –
4 | CCCCCCCCCCCCCCCC(=O)OCC(O)CO (stereo not drawn) [1-MONOPALMITIN] | – | collision cross section (N2) ([M+Na]+): 195.9 Å²
5 | C[C@@H](N)[C@@H](O)c1ccccc1 [1R,2S-PHENYLPROPYLAMINE] | – | collision cross section (N2) ([M+H-H2O]+): 127.8 Å²
6 | O=C(/C=C/c1ccccc1)c1ccc(O)cc1O [2',4'-DIHYDROXYCHALCONE] | 153.5 Å² | –
7 | CCOc1ccc(C(=O)c2ccc(OC)c(O)c2O)cc1 [2,3-DIHYDROXY-4-METHOXY-4'-ETHOXYBENZOPHENONE] | 164 Å² | –
8 | COC1=CC(=O)C=C(OC)C1=O [2,6-DIMETHOXYQUINONE] | 129.5 Å² | –
9 | CC1(C)CC2C1CCC1(C)OC1CCC2(C)O (stereo not drawn) [2-HYDROXY-5 (6)EPOXY-TETRAHYDROCARYOPHYLLENE] | – | collision cross section (N2) ([M+H-H2O]+): 150.8 Å²
10 | S=c1[nH]c2ccccc2s1 [2-MERCAPTOBENZOTHIAZOLE] | 126.4 Å² | –
11 | COc1ccc2oc3ccccc3c(=O)c2c1 [2-METHOXYXANTHONE] | 142.4 Å² | –
12 | Cc1[nH]c2ccccc2c1CN(C)C [2-METHYL GRAMINE] | 140.6 Å² | –
13 | O=c1cccc2ccc(O)c(O)c2c1O [3,4,6-trihydroxy-5H-benzo[a]cyclohepten-5-one] | 134.7 Å² | –
14 | COc1ccc2c(=O)c(OC)c(-c3ccccc3)oc2c1 [3,7-DIMETHOXYFLAVONE] | 160.7 Å² | –
15 | CC(=O)OC1CC[C@@]2(C)C(CC[C@H]3[C@@H]4CC=C(C(C)=O)[C@@]4(C)C(=O)C[C@@H]32)C1 (stereo partly drawn) [3-ACETOXYPREGN-16-EN-12,20-DIONE] | 189.5 Å² | –
16 | NCCc1ccc(O)c(O)c1 [3-HYDROXYTYRAMINE] | 127.7 Å² | –
17 | C=C1C2CC[C@@]3(C)[C@H](c4ccoc4)OC(=O)C[C@]13O[C@H]1CC(O)C(C)(C)C(CC(=O)OC)[C@@]21C (stereo partly drawn) [3alpha-HYDROXY-3-DEOXYANGOLENSIC ACID METHYL ESTER] | 204.6 Å² | –
18 | O=C(/C=C/c1ccccc1)c1ccc(O)cc1 [4'-HYDROXYCHALCONE] | 150.8 Å² | –
19 | COc1ccc(-c2cc(=O)c3ccccc3o2)cc1 [4'-METHOXYFLAVONE] | 152.1 Å² | –
20 | CCCCOc1cc(CC2CNC(=O)N2)ccc1OC (stereo not drawn) [4-(3-BUTOXY-4-METHOXYBENZYL)IMIDAZOLIDIN-2-ONE] | 174 Å² | –
21 | Cc1cc(O)cc(=O)o1 [4-HYDROXY-6-METHYLPYRAN-2-ONE] | 119.8 Å² | –
22 | O=C(O)CCCN1C(=O)c2cccc3cccc(c23)C1=O [4-NAPHTHALIMIDOBUTYRIC ACID] | 156.5 Å² | –
23 | Cc1cc(=O)oc2cc(O)cc(O)c12 [5,7-DIHYDROXY-4-METHYLCOUMARIN] | 134.4 Å² | –

Row | SMILES | collision cross section (N2) ([M+H]+) | other results
24 | CC(C)CCC[C@@H](C)[C@H]1CC[C@H]2[C@@H]3CC[C@H]4C[C@@H](O)CC[C@]4(C)[C@H]3CC[C@]12C [5alpha-CHOLESTANOL] | – | collision cross section (N2) ([M+H-H2O]+): 209 Å²
25 | O=c1cc(-c2ccc(O)cc2)oc2ccc(O)cc12 [6,4'-DIHYDROXYFLAVONE] | 152.7 Å² | –
26 | NC(=O)c1ccc(N)nc1 [6-AMINONICOTINAMIDE] | 125.7 Å² | –
27 | C=C1C2CC[C@@]3(C)[C@H](c4ccoc4)OC(=O)C[C@]13O[C@H]1CC(=O)C(C)(C)[C@H](C(O)C(=O)OC)[C@@]21C (stereo partly drawn) [6-HYDROXYANGOLENSIC ACID METHYL ESTER] | 207.6 Å² | –
28 | CN1[C@H]2CC(=O)C[C@@H]1C(O)C2 (stereo partly drawn) [6-HYDROXYTROPINONE] | 131.6 Å² | –
29 | O=c1cc(-c2ccccc2)oc2cc(O)ccc12 [7-HYDROXYFLAVONE] | 148.9 Å² | –
30 | Oc1cccc2cccnc12 [8-HYDROXYQUINOLINE] | 123.6 Å² | –
31 | CC(=O)O[C@@H]1C[C@@]2(C)C(CC[C@@H]2C(C)=O)C2CCC3=CC(=O)CC[C@]3(C)C21 (stereo partly drawn) [11a-ACETOXYPROGESTERONE] | 190.6 Å² | –
32 | CC(=O)[C@H]1CC[C@H]2[C@@H]3CCC4=CC(=O)CC[C@]4(C)[C@H]3C(OC(=O)CCC(=O)O)C[C@]12C (stereo partly drawn) [11alpha-HYDROXYPROGESTERONE HEMISUCCINATE] | 201.8 Å² | –
33 | NC(=O)c1ncn([C@@H]2O[C@H](CO)[C@@H](O)[C@H]2O)c1N [ACADESINE] | 153 Å² | –
34 | C[C@H]1O[C@H](O[C@H]2[C@H](O)[C@@H](O)[C@@H](O[C@H]3[C@H](O)[C@@H](O)C(O)O[C@@H]3CO)O[C@@H]2CO)[C@H](O)[C@@H](O)[C@@H]1N[C@H]1C=C(CO)[C@@H](O)[C@H](O)[C@H]1O (stereo partly drawn) [ACARBOSE] | 231 Å² | –
35 | CC(=O)Nc1ccc(O)cc1 [ACETAMINOPHEN] | 129.7 Å² | –
36 | CC(=O)Nc1ccccc1 [ACETANILIDE] | 125 Å² | –
37 | CC(=O)N[C@@H](CCC(=O)O)C(=O)O [ACETYLGLUTAMIC ACID] | – | collision cross section (N2) ([M+Na]+): 141.7 Å²
38 | CC(=O)N[C@@H](Cc1c[nH]c2ccccc12)C(N)=O [ACETYLTRYPTOPHANAMIDE] | – | collision cross section (N2) ([M+Na]+): 159.3 Å²
39 | CCCCC[C@H](CC(=O)NO)C(=O)N[C@H](C(=O)N1CCC[C@H]1CO)C(C)C [ACTINONIN] | 194.1 Å² | –
40 | CCCCCCCCCCCCCCCCC(C(=O)O)C(O)(CC(=O)O)C(=O)O (stereo not drawn) [AGARIC ACID] | – | collision cross section (N2) ([M+Na]+): 213.1 Å²
41 | CC(C)(C)NCC(O)c1ccc(O)c(CO)c1 (stereo not drawn) [ALBUTEROL] | 158.4 Å² | –
42 | O=C(O)CCCCCCCC(O)C(O)CCCCCCO (stereo not drawn) [ALEURETIC ACID] | – | collision cross section (N2) ([M+Na]+): 175.9 Å²
43 | COc1cc2nc(N(C)CCCNC(=O)C3CCCO3)nc(N)c2cc1OC (stereo not drawn) [ALFLUZOSIN] | 193.9 Å² | –
44 | COc1cc(OC)c2c(c1)OC(c1ccccc1)CC2=O (stereo not drawn) [ALPINETIN METHYL ETHER] | 162.8 Å² | –
45 | C=CCSCC1Nc2cc(Cl)c(S(N)(=O)=O)cc2S(=O)(=O)N1 (stereo not drawn) [ALTHIAZIDE] | 181.5 Å² | –
46 | C=CC[C@]1(O)CC[C@H]2[C@@H]3CCC4=CC(=O)CCC4=C3C=C[C@@]21C [ALTRENOGEST] | 177 Å² | –

Row | SMILES | collision cross section (N2) ([M+H]+) | other results
47 | Nc1c2ccccc2nc2ccccc12 [AMINACRINE] | 136.8 Å² | –
48 | CC(CC(C(N)=O)(c1ccccc1)c1ccccc1)N(C)C (stereo not drawn) [AMINOPENTAMIDE] | 169.6 Å² | –
49 | Nc1nc(N)c2nc(CNc3ccc(C(=O)N[C@@H](CCC(=O)O)C(=O)O)cc3)cnc2n1 [AMINOPTERIN] | 204.4 Å² | –
50 | CCN(CC)Cc1cc(Nc2ccnc3cc(Cl)ccc23)ccc1O [AMODIAQUINE] | 191.9 Å² | –
51 | Cc1c(N)c(=O)n(-c2ccccc2)n1C [AMPYRONE] | 142.6 Å² | –
52 | N#C[C@H](O[C@@H]1O[C@H](CO[C@@H]2O[C@H](CO)[C@@H](O)[C@H](O)[C@H]2O)[C@@H](O)[C@H](O)[C@H]1O)c1ccccc1 [AMYGDALIN] | 200.6 Å² | –
53 | C[C@]12C=CC(=O)C=C1CC[C@@H]1[C@@H]2CC[C@]2(C)C(=O)CC[C@@H]12 [ANDROSTA-1,4-DIEN-3,17-DIONE] | 168.4 Å² | –
54 | COc1ccc(-c2cc(=O)c3c(O)cc(OC)cc3o2)cc1 [APIGENIN DIMETHYL ETHER] | 163 Å² | –
55 | O=c1cc(-c2ccc(O)cc2)oc2cc(O)cc(O)c12 [APIGENIN] | 156 Å² | –
56 | C=CCc1cc(OC)c2c(c1OC)OCO2 [APIOLE] | 146.1 Å² | –
57 | Nc1ccc([As](=O)(O)O)cc1 [ARSANILIC ACID] | 133.2 Å² | –
58 | C[C@@H]1CC[C@H]2[C@@H](C)C(=O)O[C@@H]3O[C@@]4(C)CC[C@@H]1[C@]32OO4 [ARTEMISININ] | – | collision cross section (N2) ([M+Na]+): 168.1 Å²
59 | CCCCCC(=O)Cc1cc(O)cc(O)c1C(=O)Oc1cc(CC(=O)CCCCC)c(C(=O)O)c(OC)c1 [ARTHONIOIC ACID] | – | collision cross section (N2) ([M+H-H2O]+): 231.7 Å²
60 | C[N+]1([O-])C2CCC1CC(OC(=O)C(CO)c1ccccc1)C2 (stereo not drawn) [ATROPINE OXIDE] | 172.4 Å² | –
61 | C/C=C(\C)C(=O)O[C@H]1C[C@@H](OC(C)=O)[C@@]2(C(=O)OC)CO[C@H]3[C@@H](O)[C@@](C)([C@]45O[C@@]4(C)[C@H]4C[C@@H]5O[C@@H]5OC=C[C@@]54O)[C@H]4[C@]1(CO[C@]4(O)C(=O)OC)[C@@H]32 [AZADIRACHTIN] | – | collision cross section (N2) ([M+Na]+): 241.4 Å²
62 | CC[C@H]1OC(=O)[C@H](C)[C@@H](O[C@H]2C[C@@](C)(OC)[C@@H](O)[C@H](C)O2)[C@H](C)[C@@H](O[C@@H]2O[C@H](C)C[C@H](N(C)C)[C@H]2O)[C@](C)(O)C[C@@H](C)CN(C)[C@H](C)[C@@H](O)[C@]1(C)O [AZITHROMYCIN] | 263.5 Å² | –
63 | C[C@H]1[C@H](NC(=O)/C(=N\OC(C)(C)C(=O)O)c2csc(N)n2)C(=O)N1S(=O)(=O)O [AZTREONAM] | 197.4 Å² | –
64 | CCCCCCCCCCCC[N+](C)(C)Cc1ccccc1 [BENZALKONIUM CHLORIDE C12] | – | collision cross section (N2) ([M]+): 193 Å²
65 | CCCCCCCCCCCCCCCC[N+](C)(C)Cc1ccccc1 [BENZALKONIUM CHLORIDE C16] | – | collision cross section (N2) ([M]+): 214.8 Å²
66 | CCc1oc2ccccc2c1C(=O)c1cc(Br)c(O)c(Br)c1 [BENZBROMARONE] | 176 Å² | –
67 | CCOC(=O)c1ccc(N)cc1 [BENZOCAINE] | 145.9 Å² | –
68 | O=C(O)c1ccccc1 [BENZOIC ACID] | 122.2 Å² | –
